Test results from the NIST ThermoML archive (doi:10.1021/je0302001).

Assay: mn = molality of the nth substance listed, in mol/kg
Details: for speed of sound / mass density / viscosity: 101.3 kPa, Liquid; for viscosity: Capillary tube (Ostwald / Ubbelohde) method; for surface tension liquid-gas: Ring tensiometer

O=[N+]([O-])[O-].O=[N+]([O-])[O-].[Zn+2] [nitric acid, zinc salt] + O
Details | mass density [kg/m3] | speed of sound [m/s] | surface tension liquid-gas [mN/m] | viscosity [mPa·s]
303.15 K, m1 = 2.145 | – | 1622.9 | – | –
303.15 K, m1 = 2.29 | – | 1632.6 | – | –
303.15 K, m1 = 2.292 | – | 1630.1 | – | –
303.15 K, m1 = 2.344 | – | 1634.7 | – | –
303.15 K, m1 = 2.91 | – | 1664 | – | –
303.15 K, m1 = 3.472 | – | 1691.2 | – | –
303.15 K, m1 = 4.075 | – | 1714.1 | – | –
303.15 K, m1 = 4.817 | – | 1739.4 | – | –
303.15 K, m1 = 5.224 | – | 1748.1 | – | –
303.15 K, m1 = 5.797 | – | 1760.4 | – | –
303.15 K, m1 = 6.34 | – | 1768.2 | – | –
303.15 K, m1 = 6.89 | – | 1772.4 | – | –
303.15 K, m1 = 7.349 | – | 1774 | – | –
303.2 K, m1 = 6.89 | 1705.2 | – | – | –
303.25 K, m1 = 5.8 | 1629.7 | – | – | –
303.65 K, m1 = 0.6111 | 1084.7 | – | – | –
303.65 K, m1 = 1.906 | 1255.3 | – | – | –
303.7 K, m1 = 0.3388 | 1045.4 | – | – | –
303.75 K, m1 = 1.113 | 1154 | – | – | –
303.75 K, m1 = 1.258 | 1173.4 | – | – | –
303.75 K, m1 = 4.075 | 1486.4 | – | – | –
303.85 K, m1 = 4.817 | 1551.9 | – | – | –
303.95 K, m1 = 2.29 | 1300.6 | – | – | –
304 K, m1 = 3.472 | 1428.2 | – | – | –
304.15 K, m1 = 5.224 | 1584.8 | – | – | –
304.2 K, m1 = 7.349 | 1732.6 | – | – | –
304.3 K, m1 = 1.551 | 1210.3 | – | – | –
304.3 K, m1 = 2.344 | 1306.7 | – | – | –
304.35 K, m1 = 0.6405 | 1088.5 | – | – | –
304.45 K, m1 = 2.292 | 1300.6 | – | – | –
304.85 K, m1 = 0.1329 | 1014.5 | – | – | –
304.85 K, m1 = 2.91 | 1369.1 | – | – | –
304.85 K, m1 = 6.89 | 1703.4 | – | – | –
305.1 K, m1 = 5.8 | 1627.9 | – | – | –
305.4 K, m1 = 2.145 | 1282.8 | – | – | –
305.45 K, m1 = 6.34 | 1666.3 | – | – | –
305.65 K, m1 = 0.0875 | 1007.5 | – | – | –
305.65 K, m1 = 4.075 | 1484.9 | – | – | –
305.7 K, m1 = 1.906 | 1254.1 | – | – | –
306.1 K, m1 = 1.258 | 1172 | – | – | –
306.15 K, m1 = 2.29 | 1299.2 | – | – | –
306.25 K, m1 = 0.2466 | 1031 | – | – | –
306.25 K, m1 = 1.113 | 1152.7 | – | – | –
306.3 K, m1 = 2.344 | 1305.3 | – | – | –
306.35 K, m1 = 0.6111 | 1083.6 | – | – | –
306.35 K, m1 = 2.292 | 1299.4 | – | – | –
306.55 K, m1 = 1.551 | 1209.4 | – | – | –
306.6 K, m1 = 0.3388 | 1044.3 | – | – | –
306.75 K, m1 = 2.91 | 1367.8 | – | – | –
307.05 K, m1 = 0.6405 | 1087.4 | – | – | –
307.35 K, m1 = 2.145 | 1281.5 | – | – | –
307.5 K, m1 = 4.817 | 1548.6 | – | – | –
307.55 K, m1 = 4.075 | 1483.4 | – | – | –
307.55 K, m1 = 7.349 | 1729.2 | – | – | –
307.75 K, m1 = 3.472 | 1425.1 | – | – | –
307.75 K, m1 = 5.224 | 1581.5 | – | – | –
307.85 K, m1 = 0.1329 | 1013.4 | – | – | –
307.9 K, m1 = 1.906 | 1252.7 | – | – | –
308.15 K, m1 = 0.0875 | – | 1525.6 | – | –
308.15 K, m1 = 0.1329 | – | 1523.4 | – | 0.76
308.15 K, m1 = 0.2466 | – | 1527.9 | – | 0.787
308.15 K, m1 = 0.3388 | – | 1532.5 | – | 0.809
308.15 K, m1 = 0.6111 | – | 1543.7 | – | 0.884
308.15 K, m1 = 0.6405 | – | 1544.7 | – | 0.892
308.15 K, m1 = 1.113 | – | 1566.6 | – | 1.044
308.15 K, m1 = 1.258 | – | 1576.6 | – | 1.107
308.15 K, m1 = 1.551 | – | 1592.5 | – | 1.216
308.15 K, m1 = 1.906 | – | 1612.5 | – | 1.405
308.15 K, m1 = 2.145 | – | 1624.2 | – | 1.548
308.15 K, m1 = 2.29 | – | 1632.3 | – | 1.622
308.15 K, m1 = 2.292 | – | 1630.7 | – | –
308.15 K, m1 = 2.344 | – | 1635 | – | 1.645
308.15 K, m1 = 2.91 | – | 1662.2 | – | 2.035
308.15 K, m1 = 3.472 | – | 1687 | – | 2.554
308.15 K, m1 = 4.075 | – | 1708.9 | – | 3.149
308.15 K, m1 = 4.817 | – | 1733.1 | – | 4.24
308.15 K, m1 = 5.224 | – | 1740.5 | – | 4.878
308.15 K, m1 = 5.797 | – | 1751.6 | – | 6.183
308.15 K, m1 = 6.34 | – | 1757.7 | – | 7.469
308.15 K, m1 = 6.89 | – | 1762.2 | – | 9.274
308.15 K, m1 = 7.349 | – | 1762.6 | – | 10.94
308.25 K, m1 = 2.344 | 1303.9 | – | – | –
308.3 K, m1 = 1.258 | 1170.8 | – | – | –
308.35 K, m1 = 1.113 | 1151.6 | – | – | –
308.35 K, m1 = 6.89 | 1699.9 | – | – | –
308.6 K, m1 = 1.551 | 1208.2 | – | – | –
308.75 K, m1 = 0.0875 | 1006.4 | – | – | –
308.75 K, m1 = 5.8 | 1624.4 | – | – | –
308.85 K, m1 = 2.91 | 1366.3 | – | – | –
309.05 K, m1 = 0.6111 | 1082.4 | – | – | –
309.1 K, m1 = 6.34 | 1662.7 | – | – | –
309.15 K, m1 = 0.2466 | 1029.9 | – | – | –
309.35 K, m1 = 4.817 | 1546.9 | – | – | –
309.4 K, m1 = 0.3388 | 1043.2 | – | – | –
309.45 K, m1 = 0.6405 | 1086.3 | – | – | –
309.45 K, m1 = 2.145 | 1280.1 | – | – | –
309.55 K, m1 = 3.472 | 1423.6 | – | – | –
309.55 K, m1 = 5.224 | 1579.9 | – | – | –
310.1 K, m1 = 2.29 | 1296.5 | – | – | –
310.35 K, m1 = 2.344 | 1302.6 | – | – | –
310.45 K, m1 = 1.258 | 1169.6 | – | – | –
310.45 K, m1 = 2.292 | 1296.6 | – | – | –
310.45 K, m1 = 5.8 | 1622.9 | – | – | –
310.7 K, m1 = 1.113 | 1150.3 | – | – | –
310.7 K, m1 = 2.91 | 1364.9 | – | – | –
310.75 K, m1 = 0.1329 | 1012.3 | – | – | –
310.75 K, m1 = 6.34 | 1661.1 | – | – | –
310.8 K, m1 = 7.764 | 1749.7 | – | – | –
310.85 K, m1 = 1.551 | 1206.9 | – | – | –
310.95 K, m1 = 7.349 | 1725.6 | – | – | –
311.15 K, m1 = 4.817 | 1545.4 | – | – | –
311.25 K, m1 = 5.224 | 1578.2 | – | – | –
311.35 K, m1 = 0.6111 | 1081.4 | – | – | –
311.35 K, m1 = 3.472 | 1422.1 | – | – | –
311.35 K, m1 = 4.075 | 1480.4 | – | – | –
311.4 K, m1 = 2.145 | 1278.8 | – | – | –
311.5 K, m1 = 0.0875 | 1005.4 | – | – | –
311.7 K, m1 = 6.89 | 1696.5 | – | – | –
311.85 K, m1 = 0.2466 | 1028.8 | – | – | –
311.85 K, m1 = 0.3388 | 1042.2 | – | – | –
311.9 K, m1 = 0.6405 | 1085.1 | – | – | –
311.9 K, m1 = 1.906 | 1250.1 | – | – | –
312 K, m1 = 2.29 | 1295.1 | – | – | –
312.25 K, m1 = 5.8 | 1621 | – | – | –
312.35 K, m1 = 2.292 | 1295.2 | – | – | –
312.55 K, m1 = 6.34 | 1659.2 | – | – | –
312.7 K, m1 = 1.258 | 1168.4 | – | – | –
312.85 K, m1 = 1.113 | 1149.1 | – | – | –
312.95 K, m1 = 1.551 | 1205.6 | – | – | –
313.05 K, m1 = 5.224 | 1576.6 | – | – | –
313.15 K, m1 = 0.0875 | – | 1533.4 | – | –
313.15 K, m1 = 0.1329 | – | 1531.7 | – | 0.691
313.15 K, m1 = 0.2263 | – | – | 70.59 | –
313.15 K, m1 = 0.2466 | – | 1535.7 | – | 0.716
313.15 K, m1 = 0.334 | – | – | 70.83 | –
313.15 K, m1 = 0.3388 | – | – | – | 0.739
313.15 K, m1 = 0.6111 | – | – | – | 0.805
313.15 K, m1 = 0.6198 | – | – | 71.5 | –
313.15 K, m1 = 0.6405 | – | – | – | 0.813
313.15 K, m1 = 0.8228 | – | – | 72.2 | –
313.15 K, m1 = 1.113 | – | – | – | 0.952
313.15 K, m1 = 1.258 | – | – | – | 1.01
313.15 K, m1 = 1.259 | – | – | 73.37 | –
313.15 K, m1 = 1.549 | – | – | 74.1 | –
313.15 K, m1 = 1.551 | – | – | – | 1.106
313.15 K, m1 = 1.818 | – | – | 74.61 | –
313.15 K, m1 = 1.906 | – | – | – | 1.277
313.15 K, m1 = 2.145 | – | – | – | 1.408
313.15 K, m1 = 2.222 | – | – | 76.05 | –
313.15 K, m1 = 2.29 | – | – | – | 1.475
313.15 K, m1 = 2.344 | – | – | – | 1.495
313.15 K, m1 = 2.526 | – | – | 77.02 | –
313.15 K, m1 = 2.721 | – | – | 77.55 | –
313.15 K, m1 = 2.91 | – | – | – | 1.843
313.15 K, m1 = 3.426 | – | – | 79.09 | –
313.15 K, m1 = 3.472 | – | – | – | 2.305
313.15 K, m1 = 4.011 | – | – | 80.79 | –
313.15 K, m1 = 4.075 | – | – | – | 2.868
313.15 K, m1 = 4.231 | – | – | 81.05 | –
313.15 K, m1 = 4.817 | – | – | – | 3.774
313.15 K, m1 = 5.133 | – | – | 83.04 | –
313.15 K, m1 = 5.224 | – | – | – | 4.322
313.15 K, m1 = 5.797 | – | – | – | 5.432
313.15 K, m1 = 6.245 | – | – | 84.64 | –
313.15 K, m1 = 6.34 | – | – | – | 6.509
313.15 K, m1 = 6.89 | – | – | – | 7.997
313.15 K, m1 = 7.349 | – | – | – | 9.383
